Experimental data reported in patent US12637499B2, “Adrenomedullin analog, method for producing the same, and pharmaceutical use thereof” (priority 2020, dated 2026).
Where a SMILES comes first, the peptide text is derived from it. Bridges are numbered along the chain shown (N, C = ends).

Assay: in vitro
Method: The stabilities of the AM analog peptides in serum were evaluated with the same procedure as in Experiment I except the following procedure. […] A reaction mixture containing 4 μL of phosphate buffer, 20 μL of human serum (Sigma-Aldrich Co. LLC, USA), and 14 μL of water was prepared. To the reaction mixture, 2 μL of AM or an AM analog peptide (2×10^−6 M, final concentration: 10^−7 M) was added, and reaction was initiated at 37° C. The reaction was terminated by addition of 160 μL of ELISA buffer to the reaction mixture 0, 1, or 4 hours after the beginning of reaction. […] In the figure, the abscissa represents reaction time (hr), and the ordinate represents concentration in serum of AM or an AM analog (%) represented as relative values to concentration of AM or an AM analog at the beginning of reaction (i.e., 0 hours after the beginning of reaction).

SMILES	stability in reaction mixture with human serum (Experiment VIII, 10^−7 M, 37° C., 4 hours after the beginning of reaction)	remaining at 4 h (human, serum)
CC[C@H](C)[C@H](NC(=O)[C@H](CCC(N)=O)NC(=O)[C@H](Cc1c[nH]cn1)NC(=O)[C@H](C)NC(=O)[C@H](CC(C)C)NC(=O)[C@H](CCCCN)NC(=O)[C@H](CCC(N)=O)NC(=O)[C@@H](NC(=O)[C@@H](NC(=O)[C@@H]1CSSC[C@H](NC(=O)CNC(=O)[C@H](Cc2ccccc2)NC(=O)[C@@H](N)CO)C(=O)N[C@@H](CCCNC(=N)N)C(=O)N[C@@H](Cc2ccccc2)C(=O)NCC(=O)N[C@@H]([C@@H](C)O)C(=O)N1)[C@@H](C)O)C(C)C)C(=O)N[C@@H](Cc1ccc(O)cc1)C(=O)N[C@@H](CCC(N)=O)C(=O)N[C@@H](Cc1ccccc1)C(=O)N[C@H](C(=O)N[C@@H](CC(=O)O)C(=O)N[C@@H](CCCCN)C(=O)N[C@@H](CC(=O)O)C(=O)N[C@@H](CCCCN)C(=O)N[C@@H](CC(=O)O)C(=O)N[C@@H](CC(N)=O)C(=O)N[C@H](C(=O)N[C@@H](C)C(=O)N1CCC[C@H]1C(=O)N[C@@H](CC(=O)O)C(=O)N[C@@H](CO)C(=O)N[C@@H](CCCCN)C(=O)N[C@H](C(=O)N[C@@H](CO)C(=O)N1CCC[C@H]1C(=O)N[C@@H](CCC(N)=O)C(=O)NCC(=O)N[C@@H](Cc1ccc(O)cc1)C(N)=O)[C@@H](C)CC)C(C)C)[C@@H](C)O [[Asp-44]hAM(13-52), SFGCRFGTCTVQKLAHQIYQFTDKDKDNVAPDSKISPQGY-CONH2] (H-SFGCRFGTCTVQKLAHQIYQFTDKDKDNVAPDSKISPQGY-NH2; disulfide 4-9)	stable	–
CC[C@H](C)[C@H](NC(=O)[C@H](CCC(N)=O)NC(=O)[C@H](Cc1c[nH]cn1)NC(=O)[C@H](C)NC(=O)[C@H](CC(C)C)NC(=O)[C@H](CCCCN)NC(=O)[C@H](CCC(N)=O)NC(=O)[C@@H](NC(=O)[C@@H](NC(=O)[C@@H]1CSSC[C@H](NC(=O)CNC(=O)[C@H](Cc2ccccc2)NC(=O)[C@@H](N)CO)C(=O)N[C@@H](CCCNC(=N)N)C(=O)N[C@@H](Cc2ccccc2)C(=O)NCC(=O)N[C@@H]([C@@H](C)O)C(=O)N1)[C@@H](C)O)C(C)C)C(=O)N[C@@H](Cc1ccc(O)cc1)C(=O)N[C@@H](CCC(N)=O)C(=O)N[C@@H](Cc1ccccc1)C(=O)N[C@H](C(=O)N[C@@H](CC(=O)O)C(=O)N[C@@H](CCCCN)C(=O)N[C@@H](CC(=O)O)C(=O)N[C@@H](CCCCN)C(=O)N[C@@H](CC(=O)O)C(=O)N[C@@H](CC(N)=O)C(=O)N[C@H](C(=O)N[C@@H](C)C(=O)N1CCC[C@H]1C(=O)N[C@@H](CCCNC(=N)N)C(=O)N1CCC[C@H]1C(=O)N[C@@H](CCCCN)C(=O)N[C@H](C(=O)N[C@@H](CO)C(=O)N1CCC[C@H]1C(=O)N[C@@H](CCC(N)=O)C(=O)NCC(=O)N[C@@H](Cc1ccc(O)cc1)C(N)=O)[C@@H](C)CC)C(C)C)[C@@H](C)O [[Pro-45]hAM(13-52), SFGCRFGTCTVQKLAHQIYQFTDKDKDNVAPRPKISPQGY-CONH2] (H-SFGCRFGTCTVQKLAHQIYQFTDKDKDNVAPRPKISPQGY-NH2; disulfide 4-9)	–	~60%
